{
  "source": "paper PMC8699473",
  "about": "“An Easily Expandable Multi-Drug LC-MS Assay for the Simultaneous Quantification of 57 Oral Antitumor Drugs in Human Plasma” (Cancers, 2021)",
  "key": {"[1]": {"assay": "Plasma concentrations in patients on oral antitumor therapy (LC-MS)", "type": "in vivo, human", "conditions": "for Interpatient Coefficient of Variation [%]: patient plasma concentrations; for Median Concentration of All Samples [% of r.c.] / Min–Max Concentration [% of r.c.]: patient plasma, r.c. = respective cmin, all samples", "text": "The liquid chromatography-mass spectrometer system consisted of a Thermo Scientific Dionex UltiMate^TM 3000 with an integrated and temperature controlled autosampler (Thermo Fisher Scientific, Dreieich, Germany). An Acquity UPLC® BEH C18 column (2.1 × 100 mm, 1.7 µm; Waters, Milford, CT, USA) equipped with an Acquity UPLC® BEH C18 VanGuard^TM Pre-Column (2.1 × 5 mm, 1.7 µm; Waters, Milford, CT, USA) was used for chromatographic separation. The Q-Exactive^TM Focus mass spectrometer (MS) was hyphenated with a heated electrospray ionization (HESI) source (both from Thermo Fisher Scientific, Dreieich, Germany).\nChromatographic separation was achieved using a gradient elution with water containing 0.5% (v/v) FA (eluent A) and MeOH with 0.1% (v/v) FA (eluent B). The injection volume was 5 µL. The gradient program is shown in Supplement Table S2. The flow rate was 0.5 mL/min with a total run time of 15 min. The column heater was maintained at 50 °C and the autosampler temperature was 4 °C.\nThe following MS and HESI settings were maintained for all analyses: Sheath gas, auxiliary gas, and sweep gas flow rates were set to 60, 20, and 0, respectively. The spray voltage was 4000 V. Both capillary and auxiliary gas heater temperatures were set to 400 °C. High-purity nitrogen gas was used for the HESI source gases and for the bath gas of the C-trap. […] The HESI source was configured in positive mode for ionization.\nThe stock solutions were stored in glass vials at −80 °C. Aliquots of all stock solutions were combined in ACN (volumes of individual stock solution solvents are negligible) to obtain a standard solution of all analytes with an individual concentration of 200% of the respective trough level (cmin). Eight individual working standards were prepared by stepwise dilution of this standard solution with concentrations from 10 to 200% cmin (shown in Supplement Table S3). Furthermore, the four individual IS stock solutions were combined and diluted to 50 ng/mL with ACN. Calibration and validation standards were prepared by spiking 50 µL pooled human plasma with 10 µL of the respective working solution. Next, 250 µL IS solution (50 ng/mL in ACN) were added and vortexed vigorously. […] Then, 100 µL supernatant were transferred to 300 µL HPLC insert glass vials and diluted with 100 µL eluent (90% A/10% B). For blank samples, 50 µL pooled human plasma were combined with 10 µL ACN (instead of working solution) and prepared as described above. The calibration and validation standards were freshly prepared before every run. Patient plasma samples were prepared as calibration and validation standards (no additional processing step necessary), except for adding 10 µL ACN instead of 10 µL working standard. Before sample preparation, the frozen plasma samples were thawed in absence of light at 4 °C.\nBlood samples were collected over the entire dosing interval from patients treated with an oral anticancer drug as listed in Supplement Table S4. […] A maximum of two samples at two different time points throughout the entire dosing interval were collected per patient. Treatment duration before collection was at least five half-lives (depending on the specific oral anticancer drug). The samples were collected in K3-EDTA tubes.\nA total of 71 blood samples from 39 patients treated with 14 different oral anticancer drugs were collected (see Supplement Table S4 for details). All patients were recruited from independent outpatient clinics associated with the Comprehensive Cancer Center of the University Hospital Erlangen (CCC Erlangen-EMN). Of 71 blood samples, 41 were taken ±4 h of trough level (cmin)."}, "[2]": {"assay": "Reference trough level (cmin) at steady state", "type": "in vivo, human", "conditions": "minimum steady-state plasma concentration, calculated based on cmax; ref supplement [7], [2,5,24], [51]"}},
  "note": "Where “and” joins values, the source holds several entries; their conditions need not be identical. Identical values can stand only once.",
  "data": [
    {"smiles": "C[C@]12CC[C@H](O)CC1=CC[C@@H]1[C@@H]2CC[C@]2(C)C(c3cccnc3)=CC[C@@H]12", "note": "[Abiraterone]", "values": [
      {"measurement": "CV of plasma concentration at ±4 h of trough level", "setting": "[1]; 14 patient samples", "result": 140.8, "unit": "%"},
      {"measurement": "average concentration of the plasma samples at ±4 h of trough level", "setting": "[1]; 14 patient samples", "result": 10.2, "unit": "ng/mL"},
      {"measurement": "range of plasma concentration at ±4 h of trough level", "setting": "[1]; 14 patient samples", "result": "0.4 to 59.5", "unit": "ng/mL"},
      {"measurement": "Interpatient Coefficient of Variation [%]", "setting": "[1]", "result": 187.3, "unit": "%"},
      {"measurement": "Median Concentration of All Samples [% of r.c.]", "setting": "[1]", "result": "229.0 % of r.c."},
      {"measurement": "Min–Max Concentration [% of r.c.]", "setting": "[1]", "result": "4.3–1784.9 % of r.c."}
    ]},
    {"smiles": "O=C1CN2Cc3c(ccc(Cl)c3Cl)N=C2N1", "note": "[Anagrelide]", "values": [
      {"measurement": "cmin", "setting": "[2]", "result": 1.5, "unit": "ng/mL"}
    ]},
    {"smiles": "CNC(=O)c1ccccc1Sc1ccc2c(/C=C/c3ccccn3)n[nH]c2c1", "note": "[Axitinib]", "values": [
      {"measurement": "Measured plasma concentration", "setting": "[1]; 6 mg/day, 12 h, ±4 h of trough level: no", "result": 0.3, "unit": "ng/mL"},
      {"measurement": "Min–Max Concentration [% of r.c.]", "setting": "[1]", "result": "6.0 % of r.c."}
    ]},
    {"smiles": "COc1cc2nccc(Oc3ccc(NC(=O)C4(C(=O)Nc5ccc(F)cc5)CC4)cc3)c2cc1OC", "note": "[Cabozantinib]", "values": [
      {"measurement": "Measured plasma concentration", "setting": "[1]; 20 mg/day, 24 h, ±4 h of trough level: yes", "result": "289.4 ng/mL and 291.0 ng/mL and 551.4 ng/mL"},
      {"measurement": "Measured plasma concentration", "setting": "[1]; 40 mg/day, 24 h, ±4 h of trough level: yes", "result": 253.5, "unit": "ng/mL"},
      {"measurement": "Measured plasma concentration", "setting": "[1]; 60 mg/day, 24 h, ±4 h of trough level: no", "result": "1225.4 ng/mL and 700.9 ng/mL and 627.0 ng/mL"},
      {"measurement": "Measured plasma concentration", "setting": "[1]; 40/60 mg/day, 24 h, ±4 h of trough level: yes", "result": "445.6 ng/mL and 562.2 ng/mL"},
      {"measurement": "Interpatient Coefficient of Variation [%]", "setting": "[1]", "result": 58.5, "unit": "%"},
      {"measurement": "Median Concentration of All Samples [% of r.c.]", "setting": "[1]", "result": "153.3 % of r.c."}
    ]},
    {"smiles": "CNC(=O)c1ccc(N2C(=S)N(c3ccc(C#N)c(C(F)(F)F)c3)C(=O)C2(C)C)cc1F", "note": "[Enzalutamide]", "values": [
      {"measurement": "Measured plasma concentration", "setting": "[1]; 160 mg/day, 24 h, ±4 h of trough level: yes", "result": "11296.4 ng/mL and 14087.2 ng/mL and 14395.8 ng/mL and 17580.7 ng/mL and 11074.7 ng/mL"},
      {"measurement": "Median Concentration of All Samples [% of r.c.]", "setting": "[1]", "result": "120.1 % of r.c."},
      {"measurement": "Min–Max Concentration [% of r.c.]", "setting": "[1]", "result": "97.1–154.2 % of r.c."}
    ]},
    {"smiles": "Cc1ccc(NC(=O)c2ccc(CN3CCN(C)CC3)cc2)cc1Nc1nccc(-c2cccnc2)n1", "note": "[Imatinib]", "values": [
      {"measurement": "Measured plasma concentration", "setting": "[1]; 400 mg/day, 24 h, ±4 h of trough level: yes", "result": "1998.2 ng/mL and 1309.6 ng/mL"},
      {"measurement": "Interpatient Coefficient of Variation [%]", "setting": "[1]", "result": 29.4, "unit": "%"},
      {"measurement": "Median Concentration of All Samples [% of r.c.]", "setting": "[1]", "result": "168.9 % of r.c."}
    ]},
    {"smiles": "COc1cc2nccc(Oc3ccc(NC(=O)NC4CC4)c(Cl)c3)c2cc1C(N)=O", "note": "[Lenvatinib]", "values": [
      {"measurement": "Measured plasma concentration", "setting": "[1]; 14 mg/day, 24 h, ±4 h of trough level: yes", "result": 7.8, "unit": "ng/mL"}
    ]},
    {"smiles": "O=C(c1cc(Cc2n[nH]c(=O)c3ccccc23)ccc1F)N1CCN(C(=O)C2CC2)CC1", "note": "[Olaparib]", "values": [
      {"measurement": "Measured plasma concentration", "setting": "[1]; 600 mg/day, 12 h, ±4 h of trough level: no", "result": "4442.9 ng/mL and 5552.4 ng/mL and 6053.6 ng/mL"},
      {"measurement": "Interpatient Coefficient of Variation [%]", "setting": "[1]", "result": 51.6, "unit": "%"},
      {"measurement": "Median Concentration of All Samples [% of r.c.]", "setting": "[1]", "result": "287.6 % of r.c."}
    ]},
    {"smiles": "COc1cc2nccc(Oc3ccc(NC(=O)Nc4cc(C)on4)c(Cl)c3)c2cc1OC", "note": "[Tivozanib]", "values": [
      {"measurement": "Interpatient Coefficient of Variation [%]", "setting": "[1]", "result": 53.8, "unit": "%"},
      {"measurement": "Median Concentration of All Samples [% of r.c.]", "setting": "[1]", "result": "41.4 % of r.c."},
      {"measurement": "Min–Max Concentration [% of r.c.]", "setting": "[1]", "result": "16.4–68.3 % of r.c."}
    ]},
    {"smiles": "O=c1[nH]c(=O)n([C@H]2C[C@H](O)[C@@H](CO)O2)cc1C(F)(F)F", "note": "[Trifluridine]", "values": [
      {"measurement": "cmin", "setting": "[2]", "result": 1135, "unit": "ng/mL"}
    ]}
  ]
}
